In US12624024B2, “EP2 antagonist compounds” (Reservoir Neuroscience, Inc., priority 2021, dated 2026) one finds IC50 data, which are given here for 53 compounds.

Some results are limits rather than exact numbers.

In this assay the target is T1, EP2 receptor (Homo sapiens, UniProt P43116).
T1 construct: expressed in transfected cells; host or cells: CHO-K1 cells (ATCC), transient transfection with FuGENE 6
T1 sequence (P43116 whole entry): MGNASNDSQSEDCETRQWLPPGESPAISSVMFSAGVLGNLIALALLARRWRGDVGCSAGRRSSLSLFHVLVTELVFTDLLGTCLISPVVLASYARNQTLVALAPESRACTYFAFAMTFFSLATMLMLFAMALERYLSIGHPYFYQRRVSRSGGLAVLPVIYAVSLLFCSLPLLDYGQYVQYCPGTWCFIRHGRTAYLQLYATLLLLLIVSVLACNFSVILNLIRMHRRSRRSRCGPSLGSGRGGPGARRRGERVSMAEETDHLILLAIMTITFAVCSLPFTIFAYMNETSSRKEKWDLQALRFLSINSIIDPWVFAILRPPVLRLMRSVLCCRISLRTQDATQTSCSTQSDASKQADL
The assay is described as follows: EP2 Potency Assay (cAMP TR-FRET, CHO-K1 cells transfected with EP2 receptor, PGE2 at EC80). The format is cell-based. The note with it: CHO-K1 cells expressing EP2, prostaglandin E2 at EC80, read-out: EP2 Potency (IC50 category). The method, then: Compound potency was measured using a cAMP TR-FRET assay.
After 6 hours incubation, the cell media was replaced with F12 medium supplemented with 10% FBS and 100 U/ml Pen-Strep. 24 hours after transfection, cells were harvested and seeded at a density of 3000 cells/well in a 384 well plate to perform the cAMP assay, using the LANCE Ultra cAMP assay kit (PerkinElmer).
Plates were then centrifuged at 1000 rpm for 1 min, agitated at 600 rpm at R.T. for 2 min, and incubated at 25° C. for 5 min. The reference agonist, prostaglandin E2 (MCE), was added to each well at the appropriate concentration to reach its EC80 value. Plates were then centrifuged at 1000 rpm for 1 min, agitated at 600 rpm at R.T. for 2 min, and incubated at 25° C. for 30 min.
A dose-response curve was prepared by plotting percent inhibition for each compound concentration, and then IC50 was calculated by fitting a curve to the plotted values and extrapolating the IC50 concentration.
Background: TR-FRET usually uses a lanthanide donor and a delayed reading to cut background.
On to `O=c1cc(CN2Cc3cc(-n4ccc5cc(F)ccc54)cc(Cl)c3OCC23CC3)cc[nH]1` [Compound 230], for which the concentration for half-maximal inhibition (IC50) is more than 5 µM. For `Fc1ccc2c(ccn2-c2cc(Cl)c3c(c2)CN(Cc2ncon2)CCO3)c1` [Compound 110], the IC50 was more than 5 µM. Turning to `Nc1ccc(CN2CCOc3c(Cl)cc(-n4ccc5cc(F)ccc54)cc3C2)nn1` [Compound 167], the half-maximal inhibitory concentration (IC50) was in the range of 1 to 5 µM.

For `COc1ncc(CN2CCOc3c(Cl)cc(-n4ccc5c4CCCC5)cc3C2)cn1` [Compound 44, 9-chloro-4-[(2-methoxypyrimidin-5-yl)methyl]-7-(4,5,6,7-tetrahydroindol-1-yl)-3,5-dihydro-2H-1,4-benzoxazepine], the IC50 was in the range of 1 to 5 µM. Take `COc1ncc(CN2CCOc3c(Cl)cc(-n4ccc5cc(Cl)ncc54)cc3C2)cn1` [Compound 35]: the concentration for half-maximal inhibition (IC50) is more than 5 µM. With `COc1cc(CN2CCOc3c(Cl)cc(-n4ccc5cc(F)ccc54)cc32)ccn1` [Compound 224], the IC50 is more than 5 µM. For `O=c1ncc(CN2CCOc3c(Cl)cc(-n4ccc5cc(C(F)(F)F)ccc54)cc3C2)c[nH]1` [Compound 60], the half-maximal inhibitory concentration (IC50) lay within 1 to 5 µM. As for `O=c1ncc(CN2CCOc3c(Cl)cc(-n4ccc5cc(F)ccc54)cc3C2)c(O)[nH]1` [Compound 157, 5-{[9-chloro-7-(5-fluoroindol-1-yl)-3,5-dihydro-2H-1,4-benzoxazepin-4-yl]methyl}-4-hydroxy-3H-pyrimidin-2-one], the concentration for half-maximal inhibition (IC50) is 1 to 5 µM. With `Oc1ccc(CN2CCOc3c(Cl)cc(-n4ccc5cc(F)ccc54)cc3C2)cc1` [Compound 121], the IC50 was more than 5 µM. With `[2H]C1([2H])c2cc(-n3ccc4cc(F)ccc43)cc(Cl)c2OCCN1Cc1cc[nH]c(=O)c1` [Compound 226], the IC50 fell in the range of 0.1 to 0.5 µM. As for `O=C(O)[C@H]1CC[C@@H](CN2CCOc3c(Cl)cc(-n4ccc5cc(F)ccc54)cc3C2)CC1` [Compound 132, cis-4-{[9-chloro-7-(5-fluoroindol-1-yl)-3,5-dihydro-2H-1,4-benzoxazepin-4-yl]methyl}cyclohexane-1-carboxylic acid], the IC50 fell in the range of 1 to 5 µM. Next, `O=c1ncc(CN2CCOc3c(Cl)cc(-n4ccc5c(F)c(F)ccc54)cc3C2)c[nH]1` [Compound 64]: less than 0.1 µM.

Turning to `O=C(O)[C@H]1CC[C@H](CN2CCOc3c(Cl)cc(-n4ccc5cc(F)ccc54)cc3C2)CC1` [Compound 131], the IC50 is 0.5 to 1 µM. For the compound `Fc1ccc2c(ccn2-c2cc(Cl)c3c(c2)CN(Cc2ccsn2)CCO3)c1` [Compound 97], the half-inhibitory concentration (IC50) is more than 5 µM. `COc1ncc(CN2CCOc3c(Cl)cc(-n4ccc5cncnc54)cc3C2)cn1` [Compound 42]: the 50% inhibitory concentration (IC50) was more than 5 µM. `COc1ncc(CN2CCOc3c(Cl)cc(-n4ccc5cnccc54)cc3C2)cn1` [Compound 36]: the half-inhibitory concentration (IC50) was more than 5 µM.

For the compound `Nc1nccc(CN2CCOc3c(Cl)cc(-n4ccc5cc(F)ccc54)cc3C2)n1` [Compound 163, 4-{[9-chloro-7-(5-fluoroindol-1-yl)-3,5-dihydro-2H-1,4-benzoxazepin-4-yl]methyl}pyrimidin-2-amine], the IC50 was 1 to 5 µM. With `Fc1ccc2c(ccn2-c2cc(Cl)c3c(c2)CN(Cc2cnsc2)CCO3)c1` [Compound 96] the figure was 1 to 5 µM.

Regarding `COc1ncc(CN2CCOc3c(Cl)cc(-n4ccc5cc(C#N)ccc54)cc3C2)cn1` [Compound 16], the half-inhibitory concentration (IC50) is 0.5 to 1 µM. In the case of `COc1ncc(CN2CCOc3c(Cl)cc(-n4ccc5cc(F)c(Cl)cc54)cc3C2)cn1` [Compound 28], the IC50 was more than 5 µM. Take `CNC(=O)[C@H]1CC[C@@H](CN2CCOc3c(Cl)cc(-n4ccc5cc(F)ccc54)cc3C2)CC1` [Compound 128, cis-4-{[9-chloro-7-(5-fluoroindol-1-yl)-3,5-dihydro-2H-1,4-benzoxazepin-4-yl]methyl}-N-methylcyclohexane-1-carboxamide]: the IC50 is 1 to 5 µM.

Turning to `O=C1NN=CC1CN1CCOc2c(Cl)cc(-n3ccc4cc(F)ccc43)cc2C1` (centres unmarked) [Compound 199], the IC50 was in the range of 1 to 5 µM.

For `Cc1c(-n2ccc3cc(F)ccc32)cc(Cl)c2c1CN(Cc1cc[nH]c(=O)c1)CCO2` [Compound 238], the half-maximal inhibitory concentration (IC50) was in the range of 1 to 5 µM. With `COC(=O)c1ncc(CN2CCOc3c(Cl)cc(-n4ccc5cc(F)ccc54)cc3C2)cn1` [Compound 145, Methyl 5-{[9-chloro-7-(5-fluoroindol-1-yl)-3,5-dihydro-2H-1,4-benzoxazepin-4-yl]methyl}pyrimidine-2-carboxylate] the figure was less than 0.1 µM. For the compound `O=c1ncc(CN2CCOc3c(Cl)cc(-n4ccc5ccncc54)cc3C2)c[nH]1` [Compound 71], the IC50 is more than 5 µM.

`CN(C)c1ccc2c(ccn2-c2cc(Cl)c3c(c2)CN(Cc2cnc(=O)[nH]c2)CCO3)c1` [Compound 61]: the IC50 is more than 5 µM. For the compound `COc1ncc(CN2CCOc3c(Cl)cc(-n4ccc5cc(N(C)C)ccc54)cc3C2)cn1` [Compound 18], the IC50 was more than 5 µM. Regarding `Fc1ccc2c(ccn2-c2cc(Cl)c3c(c2)CN(Cc2ccsc2)CCO3)c1` [Compound 92], the half-maximal inhibitory concentration (IC50) was more than 5 µM. As for `Oc1ccccc1CN1CCOc2c(Cl)cc(-n3ccc4cc(F)ccc43)cc2C1` [Compound 119], the half-maximal inhibitory concentration (IC50) was more than 5 µM. In the case of `O=c1ncc(CN2CCOc3c(Cl)cc(-n4ccc5cncnc54)cc3C2)c[nH]1` [Compound 77], the IC50 was more than 5 µM.

Regarding `COc1ncc(CN2CCOc3c(Cl)cc(N4CCS(=O)(=O)c5ccccc54)cc3C2)cn1` [Compound 53], the concentration for half-maximal inhibition (IC50) is more than 5 µM. Turning to `COc1ncc(CN2CCOc3c(Cl)cc(N4Cc5ccccc5C4=O)cc3C2)cn1` [Compound 48], the IC50 is more than 5 µM. `CC(C)(C)OC(=O)NCc1ncc(CN2CCOc3c(Cl)cc(-n4ccc5cc(F)ccc54)cc3C2)cn1` [Compound 140, tert-butyl N-[(5-{[9-chloro-7-(5-fluoroindol-1-yl)-3,5-dihydro-2H-1,4-benzoxazepin-4-yl]methyl}pyrimidin-2-yl)methyl]carbamate]: the IC50 lay in the range of 1 to 5 µM. With `COc1ncc(CN2CCOc3c(Cl)cc(-n4ccc5ncccc54)cc3C2)cn1` [Compound 37] the figure was 0.5 to 1 µM. Consider `Fc1ccc2c(ccn2-c2cc(Cl)c3c(c2)CN(Cc2nncs2)CCO3)c1` [Compound 112], for which the IC50 was in the range of 1 to 5 µM. With `COc1cc(C(C)N2CCOc3c(Cl)cc(-n4ccc5cc(F)ccc54)cc3C2)ccn1` (racemic) [Compound 217, 9-chloro-7-(5-fluoroindol-1-yl)-4-[1-(2-methoxypyridin-4-yl)ethyl]-3,5-dihydro-2H-1,4-benzoxazepine], the 50% inhibitory concentration (IC50) was more than 5 µM. Consider `Oc1ncc(CN2CCOc3c(Cl)cc(-n4ccc5cc(F)ccc54)cc3C2)c(Cl)n1` [Compound 158, 4-chloro-5-{[9-chloro-7-(5-fluoroindol-1-yl)-3,5-dihydro-2H-1,4-benzoxazepin-4-yl]methyl}-3H-pyrimidin-2-one], for which the concentration for half-maximal inhibition (IC50) fell in the range of 1 to 5 µM. On to `COc1ncc(CN2CCOc3c(Cl)cc(-c4cccc5c4CCCC5)cc3C2)cn1` [Compound 55], for which the IC50 is more than 5 µM. Regarding `[2H]C1([2H])c2cc(-n3ccc4cc(F)ccc43)cc(Cl)c2OC([2H])([2H])C([2H])([2H])N1Cc1cc[nH]c(=O)c1` [Compound 225], the half-maximal inhibitory concentration (IC50) lay within 0.1 to 0.5 µM. For the compound `COc1ncc(CN2CCOc3c(Cl)cc(N4CCc5cc(F)ccc54)cc3C2)cn1` [Compound 45, 9-chloro-7-(5-fluoro-2,3-dihydroindol-1-yl)-4-[(2-methoxypyrimidin-5-yl)methyl]-3,5-dihydro-2H-1,4-benzoxazepine], the IC50 was 0.5 to 1 µM.

On to `Fc1ccc2c(ccn2-c2cc(Cl)c3c(c2)CN(Cc2ccco2)CCO3)c1` [Compound 89], for which the IC50 is more than 5 µM. `Fc1ccc2c(ccn2-c2cc(Cl)c3c(c2)CN(Cc2cscn2)CCO3)c1` [Compound 100, 9-chloro-7-(5-fluoroindol-1-yl)-4-(1,3-thiazol-4-ylmethyl)-3,5-dihydro-2H-1,4-benzoxazepine]: the half-maximal inhibitory concentration (IC50) is more than 5 µM. With `COc1ccc2c(ccn2-c2cc(Cl)c3c(c2)CN(Cc2cnc(OC)nc2)CCO3)c1` [Compound 19] the figure was more than 5 µM; with `O=c1cc(CN2Cc3cc(-n4ccc5cc(F)ccc54)cc(Cl)c3OCC23COC3)cc[nH]1` [Compound 229], more than 5 µM. Turning to `COc1ncc(CN2CCOc3c(Cl)cc(-c4cccc5ccccc45)cc3C2)cn1` [Compound 54], the concentration for half-maximal inhibition (IC50) lay in the range of 1 to 5 µM. Take `Fc1ccc2c(ccn2-c2cc(Cl)c3c(c2)CN(Cc2ccnc(NC4COC4)n2)CCO3)c1` [Compound 162, 4-{[9-chloro-7-(5-fluoroindol-1-yl)-3,5-dihydro-2H-1,4-benzoxazepin-4-yl]methyl}-N-(oxetan-3-yl)pyrimidin-2-amine]: the concentration for half-maximal inhibition (IC50) was in the range of 1 to 5 µM. Regarding `Fc1ccc2c(ccn2-c2cc(Cl)c3c(c2)CN(Cc2cnc(Cl)cn2)CCO3)c1` [Compound 173], the half-maximal inhibitory concentration (IC50) was in the range of 1 to 5 µM.

As to `COc1cc(CN2CCOc3c(Cl)cc(-n4ccc5cc(F)ccc54)c(C)c3C2)ccn1` [Compound 221], the 50% inhibitory concentration (IC50) is more than 5 µM. Turning to `COc1ncc(CN2CCOc3c(Cl)cc(-n4ccc5cc(Cl)ccc54)cc3C2)cn1` [Compound 20], the IC50 was 0.5 to 1 µM. With `NC(=O)[C@H]1CC[C@@H](CN2CCOc3c(Cl)cc(-n4ccc5cc(F)ccc54)cc3C2)CC1` [Compound 125] the figure was 1 to 5 µM; with `O=c1cc(CN2Cc3cc(-n4ccc5cc(F)ccc54)cc(Cl)c3OCC2C2CC2)cc[nH]1` (centres unmarked) [Compound 231], more than 5 µM. Next, `Fc1ccc2c(ccn2-c2cc(Cl)c3c(c2)CN(Cc2cncnc2)CC3)c1` [Compound 222]: more than 5 µM; `CC(C)(C)OC(=O)Nc1cc(CN2CCOc3c(Cl)cc(-n4ccc5cc(F)ccc54)cc3C2)ccn1` [Compound 178]: more than 5 µM.

Broadly, the IC50 is the midpoint of a concentration-inhibition curve.
